Reference: ChEMBL document CHEMBL1201862, “PubChem BioAssay data set” (2004)
Activity calls are given as the source filed them.

How the values were obtained:
cells = assay type: functional
Cysteine protease ATG4B = biological target: T1, Cysteine protease ATG4B (Homo sapiens, UniProt Q9Y4P1); assay type: functional;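 also: Fluorescence-based dose-response confirmation assay measuring inhibition of ATG4B activity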
T1 sequence (Q9Y4P1 whole entry): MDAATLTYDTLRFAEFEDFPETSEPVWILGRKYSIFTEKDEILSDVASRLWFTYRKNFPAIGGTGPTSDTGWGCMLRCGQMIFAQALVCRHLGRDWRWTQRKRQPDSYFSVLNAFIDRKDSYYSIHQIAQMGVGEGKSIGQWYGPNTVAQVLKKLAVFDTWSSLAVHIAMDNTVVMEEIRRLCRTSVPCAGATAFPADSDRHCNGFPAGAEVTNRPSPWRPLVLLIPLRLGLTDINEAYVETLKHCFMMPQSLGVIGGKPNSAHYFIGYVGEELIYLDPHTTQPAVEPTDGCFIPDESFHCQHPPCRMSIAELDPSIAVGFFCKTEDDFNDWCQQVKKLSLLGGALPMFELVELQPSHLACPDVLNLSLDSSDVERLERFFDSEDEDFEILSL

Phospholipase A2 = Phospholipase A2 (Homo sapiens, UniProt P04054); assay type: functional;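 also: confirmatory dose-response counterscreen on phospholipase A2, testing hits that came from an ultra-high-throughput screen for ATG4B inhibitors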
Phospholipase A2, sequence (P04054 whole entry): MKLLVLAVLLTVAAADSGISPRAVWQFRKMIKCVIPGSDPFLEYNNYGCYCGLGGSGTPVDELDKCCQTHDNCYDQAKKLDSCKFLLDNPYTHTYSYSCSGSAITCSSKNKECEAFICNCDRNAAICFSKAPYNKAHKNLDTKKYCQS

[1] = NIH-3T3 fibroblast cytotoxicity, dose response, cytotoxicity control, cell-based, fluorescence, Alamar Blue, secondary assay (AID 2327); assay type: functional;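 also: NIH-3T3 mouse fibroblasts cultured with fluconazole at 8 µg/mL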
[2] = C. albicans growth with fluconazole, confirmation, fluorescence, retest (AID 2467); assay type: functional, cell-based
[3] = cytotoxicity toward NIH3T3 fibroblasts, dose response, counter-screen, cell-based, ATP luminescence, mouse fibroblasts (AID 2010); assay type: functional;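 also: cells exposed to compound for about 90 hours before reading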
[4] = biological target: Heat shock protein HSP 90-alpha (Homo sapiens, UniProt P07900); assay type: functional, organism-based
[5] = inhibitors of intracellular T. cruzi replication, confirmation, NIH3T3 host cells, beta-gal luminescence (AID 2044); assay type: functional, cell-based;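 also: intracellular parasites grown in NIH/3T3 mouse fibroblasts as host cells; luminescent beta-galactosidase reporter signal from transgenic T. cruzi replicating inside host cells; inhibitors lower the luminescence signal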
[6] = THP-1 cell cytotoxicity, dose response, cytotoxicity control for Vif-APOBEC3G degradation inhibitor project, THP-1 cells (AID 1117359); assay type: functional; conditions: Human immunodeficiency virus 1, THP-1
[7] = biological target: Peroxisome proliferator-activated receptor gamma/Nuclear receptor coactivator 1 (Homo sapiens, UniProt P37231); assay type: functional;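 also: agonist potency as compounds enhance coactivator SRC-1 recruitment to PPARgamma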
Peroxisome proliferator-activated receptor gamma/Nuclear receptor coactivator 1, sequence (P37231 whole entry): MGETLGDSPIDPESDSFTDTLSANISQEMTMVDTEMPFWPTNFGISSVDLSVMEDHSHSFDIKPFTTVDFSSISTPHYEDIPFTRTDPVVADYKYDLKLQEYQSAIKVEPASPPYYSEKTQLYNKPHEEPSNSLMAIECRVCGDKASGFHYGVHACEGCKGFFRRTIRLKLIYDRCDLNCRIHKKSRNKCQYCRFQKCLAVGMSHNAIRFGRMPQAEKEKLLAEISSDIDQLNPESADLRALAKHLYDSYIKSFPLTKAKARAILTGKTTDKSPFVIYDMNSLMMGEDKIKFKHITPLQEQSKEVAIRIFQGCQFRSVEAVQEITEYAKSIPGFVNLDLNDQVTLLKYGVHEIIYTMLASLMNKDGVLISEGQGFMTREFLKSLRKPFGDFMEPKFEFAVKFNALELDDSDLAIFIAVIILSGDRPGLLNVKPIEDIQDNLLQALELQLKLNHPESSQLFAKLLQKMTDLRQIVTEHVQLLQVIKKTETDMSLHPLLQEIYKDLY
Peroxisome proliferator-activated receptor gamma/Nuclear receptor coactivator 1, sequence (Q15788 whole entry, further chain): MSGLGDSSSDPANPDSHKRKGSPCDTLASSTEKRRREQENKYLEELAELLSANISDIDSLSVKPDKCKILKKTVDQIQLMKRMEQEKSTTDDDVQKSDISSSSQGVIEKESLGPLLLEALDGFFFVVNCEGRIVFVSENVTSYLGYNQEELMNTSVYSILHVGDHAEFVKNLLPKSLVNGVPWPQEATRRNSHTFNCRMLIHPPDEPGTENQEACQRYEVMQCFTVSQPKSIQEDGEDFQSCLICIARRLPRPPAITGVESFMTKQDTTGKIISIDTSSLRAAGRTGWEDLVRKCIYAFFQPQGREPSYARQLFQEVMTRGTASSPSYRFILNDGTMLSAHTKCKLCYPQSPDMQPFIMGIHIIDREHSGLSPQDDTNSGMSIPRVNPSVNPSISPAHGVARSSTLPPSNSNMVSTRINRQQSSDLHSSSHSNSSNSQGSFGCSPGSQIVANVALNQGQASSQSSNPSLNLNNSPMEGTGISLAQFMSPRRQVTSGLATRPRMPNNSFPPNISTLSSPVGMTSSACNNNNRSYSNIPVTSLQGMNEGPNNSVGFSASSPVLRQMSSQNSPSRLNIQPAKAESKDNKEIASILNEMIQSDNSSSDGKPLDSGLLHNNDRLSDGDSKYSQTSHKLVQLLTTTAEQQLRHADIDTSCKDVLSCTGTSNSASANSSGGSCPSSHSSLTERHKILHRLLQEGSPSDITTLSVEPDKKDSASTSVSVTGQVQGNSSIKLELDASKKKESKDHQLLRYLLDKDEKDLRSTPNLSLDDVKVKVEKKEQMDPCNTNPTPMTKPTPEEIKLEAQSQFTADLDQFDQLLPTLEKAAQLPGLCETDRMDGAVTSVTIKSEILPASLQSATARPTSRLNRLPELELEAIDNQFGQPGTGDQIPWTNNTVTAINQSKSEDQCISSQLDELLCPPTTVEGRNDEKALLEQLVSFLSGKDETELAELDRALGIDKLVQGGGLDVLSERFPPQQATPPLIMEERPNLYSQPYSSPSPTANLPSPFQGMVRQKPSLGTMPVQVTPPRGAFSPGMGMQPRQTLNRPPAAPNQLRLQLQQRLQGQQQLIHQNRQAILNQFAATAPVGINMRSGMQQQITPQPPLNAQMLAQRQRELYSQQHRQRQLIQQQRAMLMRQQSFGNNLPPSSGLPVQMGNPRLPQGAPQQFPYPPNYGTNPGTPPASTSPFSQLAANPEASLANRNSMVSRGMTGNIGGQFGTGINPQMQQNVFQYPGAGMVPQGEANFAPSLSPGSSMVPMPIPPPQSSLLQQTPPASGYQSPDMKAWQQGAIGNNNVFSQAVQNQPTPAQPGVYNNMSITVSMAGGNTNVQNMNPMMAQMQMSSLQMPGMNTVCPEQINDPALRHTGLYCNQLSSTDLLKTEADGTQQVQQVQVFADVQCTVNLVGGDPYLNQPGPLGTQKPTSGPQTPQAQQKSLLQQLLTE

[8] = biological target: Peroxisome proliferator-activated receptor gamma/Nuclear receptor coactivator 3 (Homo sapiens, UniProt P37231); assay type: functional;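 also: agonist potency for raising coactivator recruitment to the receptor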
[9] = biological target: Peroxisome proliferator-activated receptor gamma/Nuclear receptor coactivator 2 (Homo sapiens, UniProt P37231); assay type: functional;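 also: agonist potency for raising coactivator recruitment to the receptor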
Peroxisome proliferator-activated receptor gamma/Nuclear receptor coactivator 2, sequence (P37231 whole entry): as the sequence (P37231 whole entry) above
Peroxisome proliferator-activated receptor gamma/Nuclear receptor coactivator 2, sequence (Q15596 whole entry, further chain): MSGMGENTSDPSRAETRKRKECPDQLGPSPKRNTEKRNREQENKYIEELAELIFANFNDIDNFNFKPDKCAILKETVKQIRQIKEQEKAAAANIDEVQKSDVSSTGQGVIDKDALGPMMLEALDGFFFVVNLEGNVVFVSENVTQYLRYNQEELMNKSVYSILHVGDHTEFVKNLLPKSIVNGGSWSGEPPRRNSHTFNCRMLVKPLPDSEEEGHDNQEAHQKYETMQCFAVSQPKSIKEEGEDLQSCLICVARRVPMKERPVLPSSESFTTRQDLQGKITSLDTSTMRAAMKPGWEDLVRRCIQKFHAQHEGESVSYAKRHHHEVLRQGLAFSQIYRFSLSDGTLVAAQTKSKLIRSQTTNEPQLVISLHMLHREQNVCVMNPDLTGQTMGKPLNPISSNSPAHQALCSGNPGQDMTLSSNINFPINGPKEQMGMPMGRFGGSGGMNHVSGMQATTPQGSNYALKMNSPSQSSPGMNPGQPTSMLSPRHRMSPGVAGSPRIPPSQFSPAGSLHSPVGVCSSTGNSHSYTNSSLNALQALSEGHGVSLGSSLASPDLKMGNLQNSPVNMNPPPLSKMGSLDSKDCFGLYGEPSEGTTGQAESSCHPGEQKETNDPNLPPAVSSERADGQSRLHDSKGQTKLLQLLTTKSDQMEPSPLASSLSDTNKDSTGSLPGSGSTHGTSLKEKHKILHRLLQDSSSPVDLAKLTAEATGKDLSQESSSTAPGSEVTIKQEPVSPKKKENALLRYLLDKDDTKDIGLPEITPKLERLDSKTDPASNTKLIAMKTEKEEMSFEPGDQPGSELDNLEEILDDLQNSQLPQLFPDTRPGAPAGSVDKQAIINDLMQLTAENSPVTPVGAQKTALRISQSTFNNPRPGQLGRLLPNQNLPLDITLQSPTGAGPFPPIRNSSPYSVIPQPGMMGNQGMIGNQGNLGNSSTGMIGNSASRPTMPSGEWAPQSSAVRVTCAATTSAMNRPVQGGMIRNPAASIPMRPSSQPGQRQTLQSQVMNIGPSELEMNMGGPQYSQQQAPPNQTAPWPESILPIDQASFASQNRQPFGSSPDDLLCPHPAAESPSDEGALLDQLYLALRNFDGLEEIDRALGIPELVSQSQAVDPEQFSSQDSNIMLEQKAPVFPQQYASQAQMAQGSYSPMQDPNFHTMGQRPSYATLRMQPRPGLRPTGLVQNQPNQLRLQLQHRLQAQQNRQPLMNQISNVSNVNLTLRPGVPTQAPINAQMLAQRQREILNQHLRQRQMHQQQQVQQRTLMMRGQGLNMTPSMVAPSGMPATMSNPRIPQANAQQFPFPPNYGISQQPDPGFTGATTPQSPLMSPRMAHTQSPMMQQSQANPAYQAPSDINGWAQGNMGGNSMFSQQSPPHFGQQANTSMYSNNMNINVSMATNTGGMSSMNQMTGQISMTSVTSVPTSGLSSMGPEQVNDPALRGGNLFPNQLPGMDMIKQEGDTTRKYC

[10] = biological target: T2, Sentrin-specific protease 8 (Homo sapiens, UniProt Q96LD8); assay type: functional
T2 sequence (Q96LD8 whole entry): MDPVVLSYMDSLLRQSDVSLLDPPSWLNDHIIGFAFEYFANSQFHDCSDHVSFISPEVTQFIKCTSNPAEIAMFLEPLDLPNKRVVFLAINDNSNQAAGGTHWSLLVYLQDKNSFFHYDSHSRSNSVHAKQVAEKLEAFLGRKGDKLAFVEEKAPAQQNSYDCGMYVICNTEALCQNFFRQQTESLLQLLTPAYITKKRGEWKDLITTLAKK

[11] = biological target: T2, Sentrin-specific protease 8; assay type: functional; remark: listed apart in the source
[12] = Luminescence Cell-Based Dose Retest to Confirm Inhibitors of Cancer Stem Cells. [Related pubchem assays (depositor defined):AID2717, AID2721]; assay type: functional; conditions: Homo sapiens
[13] = biological target: T3, Heat shock factor protein 1 (Mus musculus, UniProt P38532); test: inhibition of MG132-induced HSE-luciferase signal, confirmation, cell-based, NIH3T3, luminescence, dose retest (AID 2382); assay type: functional;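 also: NIH3T3 fibroblasts with HSF1-driven luciferase reporter stressed by proteasome inhibitor MG132; luminescence from HSF1-driven luciferase expression after 8 hours of MG132 stress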
T3 sequence (P38532 whole entry): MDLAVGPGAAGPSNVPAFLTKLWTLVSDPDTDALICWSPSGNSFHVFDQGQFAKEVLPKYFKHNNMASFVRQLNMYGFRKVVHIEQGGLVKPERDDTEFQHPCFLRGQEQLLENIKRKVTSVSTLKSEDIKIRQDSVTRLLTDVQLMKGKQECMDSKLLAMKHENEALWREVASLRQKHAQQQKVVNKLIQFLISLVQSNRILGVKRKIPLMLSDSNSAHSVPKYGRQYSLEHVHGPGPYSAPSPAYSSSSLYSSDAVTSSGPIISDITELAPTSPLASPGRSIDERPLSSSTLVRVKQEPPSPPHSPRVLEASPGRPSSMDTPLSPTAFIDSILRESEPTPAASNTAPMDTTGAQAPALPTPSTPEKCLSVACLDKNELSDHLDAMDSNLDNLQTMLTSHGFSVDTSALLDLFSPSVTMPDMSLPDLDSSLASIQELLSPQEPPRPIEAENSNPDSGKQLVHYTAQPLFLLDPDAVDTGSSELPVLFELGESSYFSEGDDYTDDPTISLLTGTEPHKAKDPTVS

[14] = MC4R antagonists, dose response, counter-screen for LGR2 antagonist project, cell-based, plate reader, cherry pick (AID 743444); assay type: functional;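 also: transfected HEK 293 cells stimulated with alpha-MSH peptide; potency of inhibitors of the alpha-MSH evoked signal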
[15] = LGR2 antagonists, dose response, cell-based, HEK293, CRE-luciferase reporter, cherry pick, set 2 (AID 743343); assay type: functional;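 also: transfected cells were stimulated with diluted bursicon conditioned medium after compound addition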
[16] = A549 cell cytotoxicity, dose response, cytotoxicity control, plate reader, cherry-pick, antagonist series (AID 743412); assay type: functional, cell-based
[17] = HEK293 cell cytotoxicity, dose response, cytotoxicity control, plate reader, cherry-picked samples (AID 743446); assay type: functional, cell-based
P388 = test: cells; assay type: functional; conditions: Mus musculus
P388/ADR = test: cells; assay type: functional; conditions: Mus musculus
SN12K1 = test: cells; assay type: functional; conditions: Homo sapiens
[18] = P. falciparum Dd2 growth inhibitors, dose response, SYBR Green, dry powder samples (AID 1159566); assay type: functional, cell-based;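 also: potency for growth inhibition with lower SYBR green DNA signal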
[19] = P. falciparum Dd2 growth inhibitors, dose response, SYBR Green, cherry-picked samples (AID 1159567); assay type: functional, cell-based
[20] = P. falciparum 3D7-ScDHODH growth inhibitors, dose response, SYBR Green, dry powder samples (AID 1159570); assay type: functional, cell-based;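 also: parasite growth measured after 72 hours of compound exposure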
[21] = P. falciparum ATP4 D1247Y mutant growth inhibitors, dose response, NITD609-resistant line, SYBR Green, dry powder (AID 1159571); assay type: functional, cell-based;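 also: parasites synchronized at ring stage by sorbitol before testing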
[22] = cytotoxicity in OVCAR8 ovarian cancer cells, dose response, PAX8 project, cell-based, plate reader, dry powder samples (AID 743197); assay type: functional; conditions: OVCAR-8
Paired box protein Pax-8 = Paired box protein Pax-8 (Homo sapiens, UniProt Q06710); test: inhibitors of PAX8-driven TPO luciferase reporter, dose response, RMG-I cells, cherry-pick (AID 687027); assay type: functional, cell-based;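 also: luciferase reporter driven by Pax8 target thyroperoxidase promoter measured by SteadyGlo luminescence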
Paired box protein Pax-8, sequence (Q06710 whole entry, the tested form may be a part): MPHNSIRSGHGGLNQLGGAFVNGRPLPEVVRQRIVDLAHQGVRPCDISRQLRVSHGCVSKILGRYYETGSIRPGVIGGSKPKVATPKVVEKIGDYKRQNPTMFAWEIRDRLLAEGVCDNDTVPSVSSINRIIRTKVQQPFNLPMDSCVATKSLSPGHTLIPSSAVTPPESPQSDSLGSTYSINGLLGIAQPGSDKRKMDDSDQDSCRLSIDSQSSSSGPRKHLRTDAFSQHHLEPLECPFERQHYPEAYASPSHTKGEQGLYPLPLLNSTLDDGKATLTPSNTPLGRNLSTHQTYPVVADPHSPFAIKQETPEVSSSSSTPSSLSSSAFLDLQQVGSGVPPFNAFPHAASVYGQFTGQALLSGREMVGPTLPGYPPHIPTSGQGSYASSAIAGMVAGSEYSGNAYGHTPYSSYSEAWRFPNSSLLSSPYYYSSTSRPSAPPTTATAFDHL

[23] = inhibitors of clade B AD8 Env fusion, dose response, cell-based, cherry-pick (AID 652062); assay type: functional;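 also: luciferase signal from cell-cell fusion driven by HIV-1 clade B AD8 Env; potency is for inhibitors of fusion seen as a drop in luminescence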
[24] = inhibitors of HIV Env-driven cell fusion, dose response, cherry-pick (AID 652057); assay type: functional, cell-based
[25] = ZM109 Env clade C HIV-1 fusion inhibitors, dose response, HeLa effector, CEM target cells, luciferase, cherry-pick (AID 652058); assay type: functional, cell-based

## COc1ccc(C(C)=O)cc1COC(=O)c1ccc2ccccc2n1
cells
  IC50: 10.4 µM (active)

## COc1cc(OC)cc(-c2nc3ccccc3c(=O)n2OC(=O)c2ccc(C)c(C)c2)c1
Cysteine protease ATG4B
  IC50: 4.38 µM (active)
Phospholipase A2
  IC50: 5.9 µM (active)

## CCn1c(=O)c(C(=O)Nc2ncccc2C)c(O)c2ccccc21
[1]
  EC50: > 150 µM (inconclusive)
[2]
  EC50: 0.119 µM (active)
cells
  IC50: 45.2 µM (active)

## CN1C(=O)C(N=Nc2ccccc2C(=O)O)N(C)C1=S (stereo not drawn)
Cysteine protease ATG4B
  IC50: 16.1 µM (active)
Phospholipase A2
  IC50: 10.3 µM (active)

## O=c1c2ccccc2nc(-c2ccc(-c3ccccc3)cc2)n1-c1ccncc1
[3]
  EC50: > 60 µM (not active)
[4]
  AC50: 2.73 µM (active)
[5]
  EC50: 0.398 µM (active)

## COc1ccc(NC(=O)CC2Nc3cccc4cccc(c34)NC2=O)cc1 (stereo not drawn)
[6]
  CC50: > 40 µM (active)

## Cc1ccc(NCCC(=O)c2cccs2)cc1Cl
cells
  IC50: 28.8 µM (active)

## COc1ccc(-c2cc(-c3cccs3)c(C#N)c(SCC(=O)NCc3ccccc3OC)n2)cc1
[7]
  EC50: 10.3 µM (not active)
[8]
  EC50: 13 µM (not active)
[9]
  EC50: 8.22 µM (active)

## CC(=O)Nc1ccc(OCC(O)CNC2CCCC2)cc1 (stereo not drawn)
[6]
  CC50: > 40 µM (active)

## Cc1nn(-c2ccccn2)c2c1-c1nc(N3CCOCC3)ncc1CC2
[7]
  EC50: > 79.4 µM (not active)
[8]
  EC50: > 79.4 µM (not active)
[9]
  EC50: > 79.4 µM (not active)

## COc1ccc(NC(=O)NNc2cc(N3CCOCC3)nc(N3CCOCC3)n2)cc1
[10]
  IC50: 9.34 µM (active)
[11]
  IC50: 7.36 µM (active)

## CCCn1c(NC(=O)c2ccco2)nc2ccccc21
[6]
  CC50: > 40 µM (active)

## Oc1ccc(C2=NN(c3ccccc3)C(c3ccc(F)cc3)C2)cc1 (stereo not drawn)
[12]
  AC50: 2.97 µM (active)
[13]
  EC50: > 195 µM (not active)
[4]
  AC50: 4.34 µM (active)

## COc1cc(=O)n(C)c2c(O)cccc12
[10]
  IC50: 11.5 µM (active)
[11]
  IC50: > 100 µM (inactive)

## Cc1ccc2[nH]c(CCc3nc4cc(C)ccc4[nH]3)nc2c1
cells
  IC50: 35.3 µM (active)

## Cc1cccc(-n2c(-c3cccs3)nc3ccccc3c2=O)c1
Cysteine protease ATG4B
  IC50: 10 µM (active)
Phospholipase A2
  IC50: 7.49 µM (active)

## CC(C)(C)OC(=O)N1Cc2ccccc2C[C@H]1C(=O)O
[10]
  IC50: 12.8 µM (active)
[11]
  IC50: > 100 µM (inactive)

## CCOc1cccc2cc(C(=O)Nc3cc(C)on3)c(=O)oc12
[7]
  EC50: 24.6 µM (not active)
[8]
  EC50: 30.1 µM (not active)
[9]
  EC50: 22.4 µM (not active)

## Cc1ccc(Nc2nc3ccccc3s2)c(C)c1
[14]
  AC50: 14.3 µM (active)
[15]
  AC50: 16.1 µM (active)
[16]
  AC50: 37.8 µM (active)
[17]
  AC50: > 52 µM (inactive)

## CC(C)(C)C(O)C(Cc1ccccc1Cl)n1cncn1 (stereo not drawn)
[4]
  AC50: < 0.195 µM (active)

## CC(OC(=O)c1cc2sccc2n1C)C(=O)NCc1cccs1 (stereo not drawn)
[7]
  EC50: > 79.4 µM (not active)
[8]
  EC50: > 79.4 µM (not active)
[9]
  EC50: > 79.4 µM (not active)

## COC/C=C/C1=CC2=CC(=O)C(C)(OC(=O)c3cnc4ccccc4n3)C(=O)C2=CN1CCOC (stereo not drawn)
[10]
  IC50: 11.5 µM (active)
[11]
  IC50: 13.1 µM (active)

## COc1ccc(N2C(=O)Cc3ccccc3C2=O)cc1
[10]
  IC50: 5.08 µM (active)
[11]
  IC50: > 100 µM (inactive)

## CN(C)CCNC(=O)c1cccc2ccc(-c3ccc(Br)cc3)nc12
P388
  GI50: 0.374 µM (active)
P388/ADR
  GI50: 0.512 µM (active)
SN12K1
  GI50: 0.895 µM (active)

## COc1ccc(C2COc3c(ccc(O)c3C)C2)cc1OC (stereo not drawn)
P388
  GI50: 40.9 µM (inactive)
P388/ADR
  GI50: 35.9 µM (inactive)
SN12K1
  GI50: 45.8 µM (inactive)

## O=C1C=CN(C2OC(CO)C(O)C2O)C(=O)C1 (stereo not drawn)
P388
  GI50: 0.718 µM (active)
P388/ADR
  GI50: 0.843 µM (active)

## CCCNC(=O)c1cc2c(c(-c3cccc(-c4cc5ccccc5o4)c3)n1)[C@H](CCO)N(C(=O)NC(C)C)C2
[18]
  AC50: 1.75 µM (active)
[19]
  AC50: 1.87 µM (active)
[20]
  AC50: 2.97 µM (active)
[21]
  AC50: 2.39 µM (active)

## CCCC#Cc1ccc2c(c1)O[C@H](CN(C)Cc1ccccc1)[C@@H](C)CN([C@H](C)CO)S2(=O)=O
[22]
  AC50: 58.3 µM (active)
Paired box protein Pax-8
  AC50: 16.2 µM (active)

## COc1ccc(NC(=O)Nc2ccc3c(c2)C(=O)N([C@@H](C)CO)C[C@H](C)[C@H](CN(C)S(=O)(=O)c2ccc(Cl)cc2)O3)cc1
[23]
  AC50: 5.38 µM (active)
[24]
  AC50: 5.71 µM (active)
[25]
  AC50: 4.73 µM (active)

## C[C@H]1CN([C@@H](C)CO)C(=O)Cc2cc(NC(=O)C3CCCCC3)ccc2O[C@H]1CN(C)S(=O)(=O)c1ccc(Cl)cc1
[23]
  AC50: 22.6 µM (active)
[24]
  AC50: 8.97 µM (active)
[25]
  AC50: 6.75 µM (active)

## Cc1ccccc1S(=O)(=O)N(C)C[C@@H]1OCc2ccccc2-c2c(n(C)c3ccccc23)C(=O)N([C@@H](C)CO)C[C@@H]1C
[18]
  AC50: 0.659 µM (active)
[19]
  AC50: 1.63 µM (active)
[20]
  AC50: 1.02 µM (active)
[21]
  AC50: 0.812 µM (active)

## CC(=O)OCC1OC(NC(=O)N(CCCl)N=O)C(OC(C)=O)C(OC(C)=O)C1OC(C)=O (stereo not drawn)
P388
  GI50: 26.7 µM (inactive)
P388/ADR
  GI50: 44.9 µM (inactive)
SN12K1
  GI50: > 100 µM (inactive)

## CC(=O)OC(C)(C)/C=C/C(=O)[C@](C)(O)[C@H]1[C@H](O)C[C@@]2(C)[C@@H]3CC=C4[C@@H](C=C(O)C(=O)C4(C)C)[C@]3(C)C(=O)C[C@]12C [CUCURBITACIN E]
P388
  GI50: 0.0379 µM (active)
P388/ADR
  GI50: 0.0375 µM (active)
SN12K1
  GI50: 0.0336 µM (active)
